Bounds are passed on as bounds.

The target in this test is T1, 3T3 cell line genetically engineered to express human EGF-R (Homo sapiens, UniProt P00533).
T1 construct: expressed in transfected cells; host or cells: 3T3
The test is described as follows: EGF-induced BrdU incorporation assay. The class given is cell-based. As to conditions: read-out: BrdU EGF driven IC50. The method, then: The cellular/catalytic assays described herein are performed in an ELISA format. The general procedure is as follows: a compound is introduced to cells expressing the test kinase, either naturally or recombinantly, for a selected period of time after which, if the test kinase is a receptor, a ligand known to activate the receptor is added. The cells are lysed and the lysate is transferred to the wells of an ELISA plate previously coated with a specific antibody recognizing the substrate of the enzymatic phosphorylation reaction. Non-substrate components of the cell lysate are washed away and the amount of phosphorylation on the substrate is detected with an antibody specifically recognizing phosphotyrosine compared with control cells that were not contacted with a test compound. The cellular/biologic assays described herein measure the amount of DNA made in response to activation of a test kinase, which is a general measure of a proliferative response. The general procedure for this assay is as follows: a compound is introduced to cells expressing the test kinase, either naturally or recombinantly, for a selected period of time after which, if the test kinase is a receptor, a ligand known to activate the receptor is added. After incubation at least overnight, a DNA labeling reagent such as Bromodeoxyuridine (BrdU) or 3H-thymidine is added. The amount of labeled DNA is detected with either an anti-BrdU antibody or by measuring radioactivity and is compared to control cells not contacted with a test compound. […]
Protocol • (1) Cells are seeded at 8000 cells/well in 10% CS, 2mM Gin in DMEM, in a 96 well plate. Cells are incubated overnight at 37° C. in 5% CO2. • (2) After 24 hours, the cells are washed with PBS, and then are serum starved in serum free medium (0% CS DMEM with 0.1% BSA) for 24 hours. • (3) On day 3, ligand (EGF, 2 nM, prepared in DMEM with 0.1% BSA) and test compounds are added to the cells simultaneously. The negative control wells receive serum free DMEM with 0.1% BSA only, the positive control cells receive the ligand (EGF) but no test compound. Test compounds are prepared in serum free DMEM with ligand in a 96 well plate, and serially diluted for 7 test concentrations. • (4) After 20 hours of ligand activation, diluted BrdU labeling reagent (1:100 in DMEM, 0.1% BSA) is added and the cells are incubated with BrdU (final concentration=10 μM) for 1.5 hours. • (5) After incubation with labeling reagent, the medium is removed by decanting and tapping the inverted plate on a paper towel. FixDenat solution is added (50 μl/well) and the plates are incubated at room temperature for 45 minutes on a plate shaker. • (6) The FixDenat solution is thoroughly removed by decanting and tapping the inverted plate on a paper towel. Milk is added (5% dehydrated milk in PBS, 200 μl/well) as a blocking solution and the plate is incubated for 30 minutes at room temperature on a plate shaker. • (7) The blocking solution is removed by decanting and the wells are washed once with PBS. Anti-BrdU-POD solution (1:100 dilution in PBS, 1% BSA) is added (100 μ/well) and the plate is incubated for 90 minutes at room temperature on a plate shaker. • (8) The antibody conjugate is thoroughly removed by decanting and rinsing the wells 5 times with PBS, and the plate is dried by inverting and tapping on a paper towel. • (9) TMB substrate solution is added (100 μl/well) and incubated for 20 minutes at room temperature on a plate shaker until color development is sufficient for photometric detection. • (10) The absorbance of the samples are measured at 410 nm (in “dual wavelength” mode with a filter reading at 490 nm, as a reference wavelength) on a Dynatech ELISA plate reader.
In the case of `COc1cc(C)c(/C=C2/C(=O)Nc3ncccc32)cc1C(C)C` [Example 45, 3-(5-Isopropyl-4-methoxy-2-methylbenzylidene)-1,3-dihydro-pyrrolo[2,3-b]pyridin-2-one], the half-maximal inhibitory concentration (IC50) was over 50 µM.
For `CCOc1cccc(-c2cc(C=C3C(=O)Nc4ccccc43)ccc2OC)c1` [Example 46, 3-(3′-Ethoxy-6-methoxybiphenyl-3-ylmethylene)-1,3-dihydroindol-2-one] the value was 45.7 µM.
For `COc1ccc(/C=C2/C(=O)Nc3ncccc32)cc1C1CCCC1` [Example 47, 3-(3-Cyclopentyl-4-methoxybenzylidene)-1,3-dihydropyrrolo[2,3-b]pyridin-2-one] the value was over 50 µM; for `COc1cc(C=C2C(=O)Nc3ccccc32)c(-c2ccccc2OC)cc1OC` [Example 49, 3-(4,5,2′-Trimethoxybiphenyl-2-ylmethylene)-1,3-dihydroindol-2-one], 24.1 µM.
With `CC(=O)Nc1ccc2c(c1)NC(=O)/C2=C/c1ccc(OCCN2CCOCC2)c(-c2ccsc2)c1` [Example 50, N-{3-[4-(2-Morpholin-4-ylethoxy)-3-thiophen-3-ylbenzylidene]-2-oxo-2,3-dihydro-1H-indol-6-yl}-acetamide], the half-inhibitory concentration (IC50) is 37.9 µM.
The result for `CC(C)c1cc(/C=C2/C(=O)Nc3ccc(Br)cc32)cc(C(C)C)c1OCCN1CCOCC1` [Example 57, 5-Bromo-3-[3,5-diisopropyl-4-(2-morpholin-4-ylethoxy)benzylidene]-1,3-dihydroindol-2-one] reads 12.3 µM; that for `CCOc1cccc(-c2cc(OC)c(OC)cc2/C=C2/C(=O)Nc3ccccc32)c1` [Example 58, 3-(3′-Ethoxy-4,5-dimethoxybiphenyl-2-ylmethylene)-1,3-dihydroindol-2-one], 27.5 µM; that for `COc1ccc(/C=C2/C(=O)Nc3ccc(Cl)cc32)cc1-c1cccs1` [Example 59, 5-chloro-3-(4-Methoxy-3-thiophen-2-ylbenzylidene)-1,3-dihydroindol-2-one], 44.5 µM.
In the case of `COc1ccc(/C=C2/C(=O)Nc3ccc(Cl)cc32)cc1-c1cccnc1` [Example 60], the IC50 is over 50 µM.
`COc1cccc(-c2cc(OC)c(OC)cc2/C=C2/C(=O)Nc3ccc(Cl)cc32)c1` [Example 61, 5-Chloro-3-(4,5-3′-Trimethoxybiphenyl-2-ylmethylene)-1,3-dihydroindol-2-one]: the concentration for half-maximal inhibition (IC50) is over 50 µM.
For `COc1cc(/C=C2/C(=O)Nc3ccccc32)c(-c2ccc3ccccc3c2)cc1OC` [Example 62, 3-(4,5-Dimethoxy-2-naphthalen-2-ylbenzylidene)-1,3-dihydroindol-2-one], the half-maximal inhibitory concentration (IC50) was over 50 µM.

Usually IC50 stands for the midpoint of a concentration-inhibition curve.

(Values after patent US6855730B2, “3-methylidenyl-2-indolinone modulators of protein kinase” (Sugen, Inc., priority 1998, dated 2005).)
